From patent EP4624497A1, “PHOSPHOEN[…] PROBE, PREPARATION METHOD THEREFOR AND APPLICATION THEREOF” (priority 2022, dated 2024)

Tests used:
Test in all cases: phosphoenolpyruvate titration of purified optical probe (fluorescence ratio)
Type in all cases: binding
Conditions in all cases: phosphoenolpyruvate 0 to 10 mM, purified probe treated 10 minutes, ex 420/485 nm, em 528 nm
[1] = target: T1, Thermus thermophilus TtPFK optical probe 254/256-TtPFK-cpYFP variant, TtPFK K215E/I253Q/Q254L/G256V/G257L, cpYFP Y1T/N246F (Thermus thermophilus, UniProt P21777, form not given/G256V/G257L/I253Q/K215E/Q254L)
T1 construct: the numbering corresponds to the full length of the phosphoenolpyruvate-sensitive polypeptide; His-tag; made in house; host or cells: E. coli BL21 (DE3), pCDF vector
Method: (§1) • 1. The expression vectors (for example, a phosphoenolpyruvate optical probe expression vector based on pCDF.) were transformed into BL21 (DE3) cells, incubated inverted overnight, and the clones were picked from the plates into 250 mL Erlenmeyer flasks, placed in a shaker at 37 °C and incubated at 220 rpm to OD=0.4-0.8, then 1/1000 (V/V) of IPTG (1 M) was added to induce expression at 18 °C for 24-36 hours. • 2. Upon completion of inducible expression, cells were harvested by centrifugation at 4000 rpm for 30 min, resuspended in 50 mM phosphate buffer and disrupted ultrasonically until the broth were clear, centrifuged at 9600 rpm at 4 °C for 20 min. • 3. The centrifuged supernatant was used to obtain protein by purification through a self-packed nickel column affinity chromatography column, and the protein obtained after nickel column affinity chromatography was further used to obtain protein dissolved in 100 mM HEPES buffer (pH 7.4). • 4. After purified proteins were subjected to SDS-PAGE, probes were diluted to a protein solution having a final concentration of 0.2-5 µM using assay buffer (100 mm HEPES, 100 mM NaCl, pH 7.4). Phosphoenolpyruvate was formulated as a stock solution at a final concentration of 50 mM with the assay buffer (100 mM HEPES, 100 mM NaCl, pH 7.4). • 5. 100 µl 1 µM of protein solution was taken, incubated at 37 °C for 10 min, phosphoenolpyruvate was added for titration, and the fluorescence intensity of 528 nm emission after 420 nm and 485 nm fluorescence excitation of the protein was measured. The fluorescence excitation and emission determination of the samples were done using a multifunctional fluorescence microplate reader. • 6. 100 µl 1 µM of protein solution was taken, incubated at 37 °C for 10 min, and phosphoenolpyruvate was added to determine the absorption and fluorescence spectra of the proteins. Determination of the absorption and fluorescence spectra of the samples was done by spectrophotometer and spectrofluorometer.
(§2) For the 254/255-TtPFK-cpYFP obtained in Example 2 and the 254/255-TtPFK-I253G/Q254L/R255L/G256F-cpYFP-Y1P, 254/255-TtPFK-I253K/Q254L/R255L/G256F-cpYFP-Y1S and 254/256-TtPFK-I253Q/Q254L/G256V/G257L-cpYFP-Y1T/N246F optical probes obtained in Example 6, amino acid were mutated at positions R21, R25, V54, R55, V57, A58, N59, I60, I61, R155, G186, R212, G213, K214, K215, S216 and L320 in the phosphoenolpyruvate binding pocket, and at positions R72, R163, R172 and R246 in the ATP binding pocket to adjust the affinity of the phosphoenolpyruvate optical probe to phosphoenolpyruvate and the substrate specificity. The probes were linearized by reverse PCR, and the sequences of the mutation sites were introduced into the primers. The obtained PCR products were subjected to homologous recombination to obtain plasmids containing the above site mutations. The mutant plasmids were transformed into BL21 (DE3) for induced expression, and the mutant probe proteins were purified for the phosphoenolpyruvate response test. The detection signal of the fusion fluorescent protein containing 2 mM phosphoenolpyruvate was divided by the detection signal of the fusion fluorescent protein without phosphoenolpyruvate. […]

[2] = target: T2, Thermus thermophilus TtPFK optical probe 254/255-TtPFK-cpYFP variant, TtPFK N59H/I253G/Q254L/R255L/G256F, cpYFP Y1P (Thermus thermophilus, UniProt P21777, form not given/G256F/I253G/N59H/Q254L/R255L)
T2 construct: the numbering corresponds to the full length of the phosphoenolpyruvate-sensitive polypeptide; His-tag; made in house; host or cells: E. coli BL21 (DE3)
Method: as §1, §2

[3] = target: T3, Thermus thermophilus TtPFK optical probe 254/256-TtPFK-cpYFP variant, TtPFK N59D/I253Q/Q254L/G256V/G257L, cpYFP Y1T/N246F (Thermus thermophilus, UniProt P21777, form not given/G256V/G257L/I253Q/N59D/Q254L)
T3 construct: His-tag; made in house; host or cells: E. coli BL21 (DE3)
Method: as §1, §2

[4] = target: T4, Thermus thermophilus TtPFK optical probe 254/256-TtPFK-cpYFP variant, TtPFK S216L/I253Q/Q254L/G256V/G257L, cpYFP Y1T/N246F (Thermus thermophilus, UniProt P21777, form not given/G256V/G257L/I253Q/Q254L/S216L)
T4 construct: the numbering corresponds to the full length of the phosphoenolpyruvate-sensitive polypeptide; His-tag; made in house; host or cells: E. coli BL21 (DE3), pCDF vector
Method: as §1, §2

[5] = target: T5, Thermus thermophilus TtPFK optical probe 254/255-TtPFK-cpYFP variant, TtPFK N59H/I253K/Q254L/R255L/G256F, cpYFP Y1S (Thermus thermophilus, UniProt P21777, form not given/G256F/I253K/N59H/Q254L/R255L)
T5 construct: the numbering corresponds to the full length of the phosphoenolpyruvate-sensitive polypeptide; His-tag; made in house; host or cells: E. coli BL21 (DE3)
Method: as §1, §2

[6] = target: T6, Thermus thermophilus TtPFK optical probe 254/255-TtPFK-cpYFP variant, TtPFK V54K/I253K/Q254L/R255L/G256F, cpYFP Y1S (Thermus thermophilus, UniProt P21777, form not given/G256F/I253K/Q254L/R255L/V54K)
T6 construct: the numbering corresponds to the full length of the phosphoenolpyruvate-sensitive polypeptide; His-tag; made in house; host or cells: E. coli BL21 (DE3)
Method: as §1, §2

[7] = target: T7, Thermus thermophilus TtPFK optical probe 254/256-TtPFK-cpYFP variant, TtPFK S216Y/I253Q/Q254L/G256V/G257L, cpYFP Y1T/N246F (Thermus thermophilus, UniProt P21777, form not given/G256V/G257L/I253Q/Q254L/S216Y)
T7 construct: His-tag; made in house; host or cells: E. coli BL21 (DE3), pCDF vector
Method: as §1, §2

[8] = target: T8, Thermus thermophilus TtPFK optical probe 254/256-TtPFK-cpYFP variant, TtPFK R212M/I253Q/Q254L/G256V/G257L, cpYFP Y1T/N246F (Thermus thermophilus, UniProt P21777, form not given/G256V/G257L/I253Q/Q254L/R212M)
T8 construct: the numbering corresponds to the full length of the phosphoenolpyruvate-sensitive polypeptide; His-tag; made in house; host or cells: E. coli BL21 (DE3)
Method: as §1, §2

T2 sequence (P21777 other isoform, or with tags, fused parts or gaps N59H, form open): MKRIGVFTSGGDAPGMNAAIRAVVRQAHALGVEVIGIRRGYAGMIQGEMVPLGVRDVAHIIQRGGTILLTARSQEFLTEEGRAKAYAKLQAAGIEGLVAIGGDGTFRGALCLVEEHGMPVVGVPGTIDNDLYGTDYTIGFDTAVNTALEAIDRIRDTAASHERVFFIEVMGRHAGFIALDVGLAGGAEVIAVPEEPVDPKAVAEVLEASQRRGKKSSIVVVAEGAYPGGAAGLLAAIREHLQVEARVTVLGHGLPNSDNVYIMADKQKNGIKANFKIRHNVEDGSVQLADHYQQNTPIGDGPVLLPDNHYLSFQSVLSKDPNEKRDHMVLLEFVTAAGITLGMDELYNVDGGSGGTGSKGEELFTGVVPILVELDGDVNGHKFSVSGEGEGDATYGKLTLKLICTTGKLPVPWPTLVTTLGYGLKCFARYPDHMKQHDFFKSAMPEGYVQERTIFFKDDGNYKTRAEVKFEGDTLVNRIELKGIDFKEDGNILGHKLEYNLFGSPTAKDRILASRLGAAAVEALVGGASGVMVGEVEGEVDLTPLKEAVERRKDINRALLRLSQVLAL
T7 sequence (P21777 other isoform, or with tags, fused parts or gaps S216Y, form open): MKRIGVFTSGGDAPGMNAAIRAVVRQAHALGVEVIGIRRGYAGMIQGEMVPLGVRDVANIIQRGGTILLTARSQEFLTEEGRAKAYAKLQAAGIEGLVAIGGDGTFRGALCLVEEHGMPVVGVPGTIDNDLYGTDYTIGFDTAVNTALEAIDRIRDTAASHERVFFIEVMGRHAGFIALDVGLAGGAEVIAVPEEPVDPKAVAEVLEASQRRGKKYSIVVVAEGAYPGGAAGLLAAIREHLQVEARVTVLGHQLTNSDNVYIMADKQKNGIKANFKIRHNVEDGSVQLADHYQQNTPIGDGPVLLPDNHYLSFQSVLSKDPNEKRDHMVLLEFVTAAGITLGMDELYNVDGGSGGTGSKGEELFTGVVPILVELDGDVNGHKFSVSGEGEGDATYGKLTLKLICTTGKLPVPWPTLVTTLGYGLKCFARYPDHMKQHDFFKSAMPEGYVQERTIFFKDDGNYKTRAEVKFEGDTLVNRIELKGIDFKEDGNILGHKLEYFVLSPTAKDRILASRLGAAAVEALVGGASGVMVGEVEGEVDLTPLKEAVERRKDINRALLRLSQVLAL
T5 sequence (P21777 other isoform, or with tags, fused parts or gaps N59H, form open): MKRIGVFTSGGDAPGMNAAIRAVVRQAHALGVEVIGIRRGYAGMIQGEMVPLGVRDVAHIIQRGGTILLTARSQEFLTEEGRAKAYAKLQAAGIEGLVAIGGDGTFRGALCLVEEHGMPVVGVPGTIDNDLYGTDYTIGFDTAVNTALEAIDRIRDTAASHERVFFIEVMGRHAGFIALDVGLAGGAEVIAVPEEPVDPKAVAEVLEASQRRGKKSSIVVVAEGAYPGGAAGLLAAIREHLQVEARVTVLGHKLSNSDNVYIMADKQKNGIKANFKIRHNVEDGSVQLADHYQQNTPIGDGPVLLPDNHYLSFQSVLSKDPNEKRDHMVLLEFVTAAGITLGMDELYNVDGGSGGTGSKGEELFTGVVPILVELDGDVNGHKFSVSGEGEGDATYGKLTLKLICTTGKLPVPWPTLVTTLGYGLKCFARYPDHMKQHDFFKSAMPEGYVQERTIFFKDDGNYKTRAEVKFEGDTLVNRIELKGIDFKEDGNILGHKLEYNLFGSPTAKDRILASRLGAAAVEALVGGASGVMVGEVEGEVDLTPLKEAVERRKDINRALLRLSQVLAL
T6 sequence (P21777 other isoform, or with tags, fused parts or gaps V54K, form open): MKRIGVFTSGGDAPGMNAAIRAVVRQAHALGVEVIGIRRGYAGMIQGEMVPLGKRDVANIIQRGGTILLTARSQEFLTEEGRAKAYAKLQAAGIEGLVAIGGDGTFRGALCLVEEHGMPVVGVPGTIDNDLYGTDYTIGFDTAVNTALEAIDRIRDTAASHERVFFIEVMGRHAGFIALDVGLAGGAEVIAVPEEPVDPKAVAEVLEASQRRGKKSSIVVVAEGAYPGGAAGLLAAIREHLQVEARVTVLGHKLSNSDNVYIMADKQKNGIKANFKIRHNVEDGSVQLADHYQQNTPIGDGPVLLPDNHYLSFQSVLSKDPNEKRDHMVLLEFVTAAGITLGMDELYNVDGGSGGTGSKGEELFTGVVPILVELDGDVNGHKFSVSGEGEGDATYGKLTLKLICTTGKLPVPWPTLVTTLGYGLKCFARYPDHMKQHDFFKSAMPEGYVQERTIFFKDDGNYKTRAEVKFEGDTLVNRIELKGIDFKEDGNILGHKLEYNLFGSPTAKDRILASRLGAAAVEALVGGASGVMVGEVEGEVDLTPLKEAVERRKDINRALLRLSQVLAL
T8 sequence (P21777 other isoform, or with tags, fused parts or gaps R212M, form open): as the sequence (P21777 other isoform, or with tags, fused parts or gaps S216Y, form open) above, with R212M, Y216S counted along it
T4 sequence (P21777 other isoform, or with tags, fused parts or gaps S216L, form open): as the sequence (P21777 other isoform, or with tags, fused parts or gaps S216Y, form open) above, with Y216L counted along it
T3 sequence (P21777 other isoform, or with tags, fused parts or gaps N59D, form open): as the sequence (P21777 other isoform, or with tags, fused parts or gaps S216Y, form open) above, with N59D, Y216S counted along it
T1 sequence (P21777 other isoform, or with tags, fused parts or gaps K215E, form open): as the sequence (P21777 other isoform, or with tags, fused parts or gaps S216Y, form open) above, with K215E, Y216S counted along it

C=C(OP(=O)(O)O)C(=O)O [phosphoenolpyruvate, Phosphoenolpyruvate]
Kd [1]: 249 µM
Kd [2]: 178 µM
Kd [3]: 374 µM
Kd [4]: 1390 nM
Kd [5]: 87.7 µM
Kd [6]: 129 µM
Kd [7]: 2360 nM
Kd [8]: 714 µM
